Measurements taken from the supplement of paper PMC10011410.
± gives the standard deviation of the averaged measurements.

Experiments:
U-2 OS [1] = test: intracellular GSH:GSSG ratio (calculated); higher = more reduced glutathione pool; conditions: 24 h
Protocol: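 Intracellular glutathione in U-2 OS cells after 24 h compound treatment at 5, 10 and 20 uM (some at 40 and 80 uM). Total glutathione and GSSG were measured with the GSH/GSSG-Glo kit, and the GSH:GSSG ratio was calculated. Mean of five technical replicate plates.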

U-2 OS [2] = test: cell viability (CellTiter-Glo) relative to DMSO (% of control); higher = more viable; conditions: 24 h
Protocol: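 Cell viability of U-2 OS cells by CellTiter-Glo after 24 h compound treatment at 5, 10 and 20 uM (some at 40 and 80 uM), measured in parallel with the glutathione assay, as percent of DMSO control. Five technical replicate plates, averaged.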

U-2 OS [3] = test: total intracellular glutathione (GSH + GSSG) relative to DMSO (% of control); higher = more glutathione; conditions: 24 h
Protocol: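 Total intracellular glutathione (GSH + GSSG) in U-2 OS cells by GSH/GSSG-Glo after 24 h compound treatment at 5, 10 and 20 uM (some at 40 and 80 uM), as percent of DMSO control. Five technical replicate plates, averaged.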

U-2 OS [4] = test: cell painting activity score (Mahalanobis distance from DMSO wells); higher = stronger morphological phenotype; conditions: 24 h
How it was run: (§1)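 Using 384-well plates holding about 1,500 U-2 OS cells per well, treatment was applied by pin tool for 24 h at 37 °C, generally at six 2-fold concentrations ranging from 20 μM to 625 nM. Staining with MitoTracker, concanavalin A, phalloidin, wheat germ agglutinin, Hoechst and SYTO 14 preceded Opera Phenix imaging and CellProfiler feature extraction against DMSO cells on the same plate. Activity score and cell count are both referenced to DMSO wells, the former as a Mahalanobis distance. Four replicate plates were averaged for every value.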

U-2 OS [5] = test: relative cell count vs DMSO (cell painting) (fraction of DMSO control); higher = more cells remaining (less cytotoxic); conditions: 24 h
How it was run: as §1

U-2 OS [6] = test: AUC of culture confluence over time (live-cell imaging) (AUC (confluence % x time)); higher = more confluent culture (less growth inhibition)
How it was run: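 Confluence of U-2 OS cells in F-12K medium with 10% FBS was tracked by live-cell imaging. Cells were seeded at 750 per well in 384-well plates and treated 24 h later by pin tool, with most compounds at 20, 10 and 5 μM and 0.2% DMSO. Cells were kept at 37 °C and imaged every 4 h for up to 60 h on an Incucyte S3 with a 10x objective. The value is the area under the confluence-versus-time curve.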

Row | Compound | intracellular GSH:GSSG ratio (U-2 OS [1]; 5 µM) | intracellular GSH:GSSG ratio (U-2 OS [1]; 10 µM) | intracellular GSH:GSSG ratio (U-2 OS [1]; 20 µM) | cell viability (U-2 OS [2]; 5 µM) | cell viability (U-2 OS [2]; 10 µM) | cell viability (U-2 OS [2]; 20 µM) | total intracellular glutathione (U-2 OS [3]; 5 µM) | total intracellular glutathione (U-2 OS [3]; 10 µM) | total intracellular glutathione (U-2 OS [3]; 20 µM) | cell painting activity score (U-2 OS [4]; 0.625 µM) | cell painting activity score (U-2 OS [4]; 1.25 µM) | cell painting activity score (U-2 OS [4]; 2.5 µM) | cell painting activity score (U-2 OS [4]; 5 µM) | cell painting activity score (U-2 OS [4]; 10 µM) | cell painting activity score (U-2 OS [4]; 20 µM) | relative cell count (U-2 OS [5]; 0.625 µM) | relative cell count (U-2 OS [5]; 1.25 µM) | relative cell count (U-2 OS [5]; 2.5 µM) | relative cell count (U-2 OS [5]; 5 µM) | relative cell count (U-2 OS [5]; 10 µM) | relative cell count (U-2 OS [5]; 20 µM) | AUC of culture confluence over time (U-2 OS [6]; 5 µM) | AUC of culture confluence over time (U-2 OS [6]; 10 µM) | AUC of culture confluence over time (U-2 OS [6]; 20 µM) | AUC of culture confluence over time (U-2 OS [6]; 0.625 µM) | AUC of culture confluence over time (U-2 OS [6]; 1.25 µM) | AUC of culture confluence over time (U-2 OS [6]; 2.5 µM)
1 | CC[C@]1(O)C[C@@H]2CN(CCc3c([nH]c4ccccc34)[C@@](C(=O)OC)(c3cc4c(cc3OC)N(C)[C@H]3[C@@](O)(C(=O)OC)[C@H](OC(C)=O)[C@]5(CC)C=CCN6CC[C@]43[C@@H]65)C2)C1 | 2.94 | 2.94 | 2.96 | 58.9 ± 5.4 | 57.8 ± 8.9 | 57.7 ± 2.6 | 60.6 ± 2.1 | 61.6 ± 7.3 | 60.5 ± 3.1 | 27.2 | 24.9 | 24.9 | 24.2 | 24.4 | 24.4 | 0.236 | 0.246 | 0.221 | 0.223 | 0.24 | 0.255 | 18.2 | 17.6 | 20 | – | – | –
2 | O=C(CCCCCCC(=O)Nc1ccccc1)NO | 8.04 | 6.39 | 4.82 | 55.2 ± 5.3 | 49.6 ± 3 | 44 ± 2 | 60.5 ± 3.5 | 47.6 ± 4.1 | 39.5 ± 5.2 | 9.26 | 11.1 | 12 | 12 | 17.1 | 14.8 | 1.01 | 0.936 | 0.838 | 0.776 | 0.491 | 0.438 | 20.3 | 17.9 | 18.6 | – | – | –
3 | CC1(C)CCC2=C(O1)c1ccccc1C(=O)C2=O | 15.5 | 11.1 | 3.75 | 79.8 ± 7.4 | 57 ± 15 | 17 ± 33 | 71.8 ± 4.9 | 56.2 ± 3.8 | 6.31 ± 1.1 | 3.9 | 4.86 | 5.01 | 5.34 | 9.42 | 18.4 | 1.05 | 0.993 | 1.08 | 0.933 | 0.767 | 0.227 | 27 | 19.8 | 20.1 | – | – | –
4 | O=[N+]([O-])c1cc(Br)c2nsnc2c1Sc1ncnc2nc[nH]c12 | 9.74 | 2.76 | 4.35 | 29.6 ± 6.5 | 6.03 ± 3.7 | 0.936 ± 0.27 | 56.4 ± 8.3 | 34.6 ± 12 | 7.7 ± 3.1 | 5.04 | 8.02 | 7.08 | 16.2 | 17.9 | 17.8 | 0.89 | 0.788 | 0.814 | 0.205 | 0.0623 | 0.0543 | 12.5 | 14.1 | 18 | – | – | –
5 | CC(=O)OC1C(c2ccc(=O)oc2)C2(C)CCC3C(CCC4CC(O)CCC43C)C23OC13 (centres undefined) | 4.48 | 3.04 | 2.21 | 21.4 ± 1.7 | 21.5 ± 2.2 | 23.7 ± 3.1 | 13.9 ± 1.2 | 12.1 ± 1.1 | 11.5 ± 0.76 | 17.1 | 16.2 | 18 | 19 | 18.5 | 18.8 | 0.327 | 0.27 | 0.264 | 0.242 | 0.229 | 0.224 | 17.6 | 19.4 | 17.6 | – | – | –
6 | CNC(=O)Nc1ccc2c(c1)[C@@]1(CC2)OC(=O)N(CC(=O)N(Cc2ccc(F)cc2)[C@@H](C)C(F)(F)F)C1=O | 20.4 | 29.9 | 16.2 | 105 ± 7.5 | 98.6 ± 12 | 103 ± 9.4 | 100 ± 8.6 | 122 ± 7.3 | 90.4 ± 4 | 4.88 | 6.13 | 4.26 | 5.02 | 5.83 | 4.92 | 0.989 | 1.01 | 0.976 | 1.01 | 0.982 | 0.969 | 45.6 | 49.6 | 44.7 | – | – | –
7 | C[C@@H]1C[C@H]2O[C@@H]2/C=C\C=C\C(=O)Cc2c(Cl)c(O)cc(O)c2C(=O)O1 | 27 | 7.74 | 3.63 | 86.8 ± 3 | 24.7 ± 2.7 | 4.77 ± 0.71 | 87.8 ± 4.1 | 36 ± 6.1 | 12.9 ± 0.62 | 14.6 ± 1.8 | 14.1 ± 1.8 | 15.2 ± 1.9 | 16.2 ± 1.9 | 16.1 ± 1.1 | 15.3 ± 0.8 | 0.852 ± 0.039 | 0.731 ± 0.047 | 0.597 ± 0.06 | 0.466 ± 0.042 | 0.419 ± 0.033 | 0.388 ± 0.018 | 19.9 | 21.3 | 20.2 | 57.8 | 48.6 | 46.8
8 | COC(=O)[C@]1(C)CC[C@]2(C)CC[C@]3(C)C4=CC=C5C(=CC(=O)C(O)=C5C)[C@]4(C)CC[C@@]3(C)[C@@H]2C1 | 0.695 | 0.536 | – | 5.12 ± 0.81 | 1.29 ± 0.58 | 0.733 ± 0.056 | 9.07 ± 0.87 | 4.42 ± 1.3 | 3.06 ± 0.32 | 24.2 | 33.5 | 32.8 | 33.4 | 33.5 | 27.7 | 0.0681 | 0.0621 | 0.0626 | 0.0644 | 0.0539 | 0.117 | 11.3 | 11.9 | 14.2 | – | – | –
